Drawing on patent US10344060B2 (priority 2013, dated 2019), this text covers Nav1.4/Nav1.7 and Nav1.5/Nav1.7 for 10 molecules.

Several values for one entry are separate records, joined by “and”; a condition that tells them apart may be missing. Identical values can stand only once.

Test [1] addresses T1, hNav1.7 (Homo sapiens, UniProt Q15858). Briefly: cell-based. The note with it: ratio of IonWorks Quattro IC50 values.
In test [2] the target is T1, hNav1.7. Briefly: cell-based. The format is cell-based. The note with it: ratio of PX tonic IC50 values; Table 11.

T1 sequence (Q15858 whole entry): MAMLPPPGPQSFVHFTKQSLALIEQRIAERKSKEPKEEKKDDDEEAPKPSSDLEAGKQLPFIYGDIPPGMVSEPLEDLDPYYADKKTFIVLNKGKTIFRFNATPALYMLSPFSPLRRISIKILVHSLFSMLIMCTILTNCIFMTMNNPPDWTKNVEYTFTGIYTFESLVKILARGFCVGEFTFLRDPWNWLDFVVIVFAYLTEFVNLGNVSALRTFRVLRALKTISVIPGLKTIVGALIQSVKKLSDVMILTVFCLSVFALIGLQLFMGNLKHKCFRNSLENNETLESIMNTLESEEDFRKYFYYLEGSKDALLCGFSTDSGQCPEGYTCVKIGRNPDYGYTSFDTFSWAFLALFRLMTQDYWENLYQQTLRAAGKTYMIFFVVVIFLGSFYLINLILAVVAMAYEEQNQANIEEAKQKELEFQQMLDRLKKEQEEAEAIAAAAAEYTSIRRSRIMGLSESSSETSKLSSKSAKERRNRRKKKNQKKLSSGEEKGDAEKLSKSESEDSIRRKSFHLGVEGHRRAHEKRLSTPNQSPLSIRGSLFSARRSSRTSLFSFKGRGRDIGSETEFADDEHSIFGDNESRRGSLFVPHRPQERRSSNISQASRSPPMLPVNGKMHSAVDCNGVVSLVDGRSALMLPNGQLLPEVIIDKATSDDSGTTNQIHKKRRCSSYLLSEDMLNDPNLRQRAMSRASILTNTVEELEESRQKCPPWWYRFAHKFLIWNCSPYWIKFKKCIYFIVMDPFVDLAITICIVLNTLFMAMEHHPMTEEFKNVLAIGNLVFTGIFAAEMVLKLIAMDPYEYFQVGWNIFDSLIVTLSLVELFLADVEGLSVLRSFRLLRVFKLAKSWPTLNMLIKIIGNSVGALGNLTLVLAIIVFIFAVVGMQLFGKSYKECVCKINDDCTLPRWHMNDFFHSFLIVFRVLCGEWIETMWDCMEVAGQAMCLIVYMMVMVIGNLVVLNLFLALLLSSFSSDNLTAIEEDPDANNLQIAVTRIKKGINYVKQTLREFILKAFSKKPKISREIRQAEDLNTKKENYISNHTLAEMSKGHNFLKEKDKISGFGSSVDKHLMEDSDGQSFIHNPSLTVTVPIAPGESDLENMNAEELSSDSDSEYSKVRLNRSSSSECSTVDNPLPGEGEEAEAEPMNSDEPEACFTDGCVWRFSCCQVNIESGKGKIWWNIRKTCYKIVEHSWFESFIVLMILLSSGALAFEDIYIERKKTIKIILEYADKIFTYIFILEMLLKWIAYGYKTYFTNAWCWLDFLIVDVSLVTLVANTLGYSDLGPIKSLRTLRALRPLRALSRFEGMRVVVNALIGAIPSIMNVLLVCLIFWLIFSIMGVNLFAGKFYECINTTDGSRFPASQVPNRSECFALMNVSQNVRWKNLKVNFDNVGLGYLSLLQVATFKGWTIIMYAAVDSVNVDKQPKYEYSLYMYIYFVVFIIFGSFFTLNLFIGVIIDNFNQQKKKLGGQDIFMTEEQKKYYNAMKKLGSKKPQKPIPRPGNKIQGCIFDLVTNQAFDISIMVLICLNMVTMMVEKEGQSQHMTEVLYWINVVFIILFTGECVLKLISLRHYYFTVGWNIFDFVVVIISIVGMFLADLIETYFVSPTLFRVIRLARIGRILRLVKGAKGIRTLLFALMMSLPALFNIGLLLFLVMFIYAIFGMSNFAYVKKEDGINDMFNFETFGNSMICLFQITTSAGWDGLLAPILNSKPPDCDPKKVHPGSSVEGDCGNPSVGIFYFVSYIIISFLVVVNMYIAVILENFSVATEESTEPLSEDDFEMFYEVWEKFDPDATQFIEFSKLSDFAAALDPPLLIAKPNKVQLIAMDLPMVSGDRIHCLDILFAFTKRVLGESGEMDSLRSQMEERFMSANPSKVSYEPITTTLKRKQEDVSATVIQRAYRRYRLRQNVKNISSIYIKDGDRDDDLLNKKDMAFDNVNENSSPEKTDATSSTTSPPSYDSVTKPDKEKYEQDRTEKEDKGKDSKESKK

Turning to `CC[C@H](C)[C@H](NC(=O)[C@@H](NC(=O)[C@H](CCCCN)NC(=O)[C@H](CCCNC(=N)N)NC(=O)[C@@H]1CSSC[C@@H]2NC(=O)[C@H](C)NC(=O)[C@H](CCCNC(=N)N)NC(=O)[C@H](CCCCN)NC(=O)[C@H](CO)NC(=O)[C@H](CC(=O)O)NC(=O)[C@@H]3CSSC[C@H](NC(=O)[C@H](CC(=O)O)NC(=O)[C@H](CC(C)C)NC(=O)CNC(=O)[C@H](CCC(=O)O)NC(=O)[C@H](CSSC[C@H](NC(=O)[C@@H](N)Cc4ccc(O)cc4)C(=O)N[C@@H](CCC(N)=O)C(=O)N[C@@H](CCCCN)C(=O)N[C@@H](Cc4c[nH]c5ccccc45)C(=O)N[C@@H](CCSC)C(=O)N[C@@H](Cc4c[nH]c5ccccc45)C(=O)N[C@@H]([C@@H](C)O)C(=O)N3)NC2=O)C(=O)N[C@@H](CCCCN)C(=O)N[C@@H](CC(C)C)C(=O)N[C@@H](Cc2c[nH]c3ccccc23)C(=O)N1)[C@@H](C)CC)C(N)=O` [compound 115], the Nav1.4/Nav1.7 on hNav1.7 [1] (Nav1.4 over Nav1.7) is given as 53. For the same molecule, on hNav1.7 [2], the Nav1.4/Nav1.7 was determined as 10 and the Nav1.5/Nav1.7 was 4. For the molecule `CC[C@H](C)[C@H](NC(=O)[C@@H](NC(=O)[C@H](CCCCN)NC(=O)[C@H](CCCNC(=N)N)NC(=O)[C@@H]1CSSC[C@@H]2NC(=O)[C@H](C)NC(=O)[C@H](CCCNC(=N)N)NC(=O)[C@H](CCCCN)NC(=O)[C@H](CO)NC(=O)[C@H](CC(=O)O)NC(=O)[C@@H]3CSSC[C@H](NC(=O)[C@H](CCCNC(N)=O)NC(=O)[C@H](CC(C)C)NC(=O)CNC(=O)[C@H](CCC(=O)O)NC(=O)[C@H](CSSC[C@H](NC(=O)[C@@H](N)Cc4ccc(O)cc4)C(=O)N[C@@H](CCC(N)=O)C(=O)N[C@@H](CCCCN)C(=O)N[C@@H](Cc4c[nH]c5ccccc45)C(=O)N[C@@H](CCSC)C(=O)N[C@@H](Cc4c[nH]c5ccccc45)C(=O)N[C@@H]([C@@H](C)O)C(=O)N3)NC2=O)C(=O)N[C@@H](CCCCN)C(=O)N[C@@H](CC(C)C)C(=O)N[C@@H](Cc2c[nH]c3ccccc23)C(=O)N1)[C@@H](C)CC)C(N)=O` [compound 122], on hNav1.7 [1] (Nav1.4 over Nav1.7), the Nav1.4/Nav1.7 is 15.

As to `CCC[C@@H]1NC(=O)[C@H](CC(C)C)NC(=O)CNC(=O)[C@H](CCC(=O)O)NC(=O)[C@@H]2CSSC[C@H](NC(=O)[C@@H](N)Cc3ccc(O)cc3)C(=O)N[C@@H](CCC(N)=O)C(=O)N[C@@H](CCCCN)C(=O)N[C@@H](Cc3c[nH]c4ccccc34)C(=O)N[C@@H](CCSC)C(=O)N[C@@H](Cc3c[nH]c4ccccc34)C(=O)N[C@@H]([C@@H](C)O)C(=O)N[C@H]3CSSC[C@H](NC1=O)C(=O)N[C@@H](CCCCN)C(=O)N[C@@H](CC(C)C)C(=O)N[C@@H](Cc1c[nH]c4ccccc14)C(=O)N[C@H](C(=O)N[C@@H](CCCNC(=N)N)C(=O)N[C@@H](CCCCN)C(=O)N[C@H](C(=O)N[C@H](C(N)=O)[C@@H](C)CC)[C@@H](C)CC)CSSC[C@H](NC(=O)[C@H](C)NC(=O)[C@H](CCCNC(=N)N)NC(=O)[C@H](CCCCN)NC(=O)[C@H](CO)NC(=O)[C@H](CC(=O)O)NC3=O)C(=O)N2` [compound 123], the Nav1.4/Nav1.7 on hNav1.7 [1] (Nav1.4 over Nav1.7) turned out to be 19. As to `CC[C@H](C)[C@H](NC(=O)[C@@H](NC(=O)[C@H](CCCCN)NC(=O)[C@H](CCCNC(=N)N)NC(=O)[C@@H]1CSSC[C@@H]2NC(=O)[C@H](C)NC(=O)[C@H](CCCNC(=N)N)NC(=O)[C@H](CCCCN)NC(=O)[C@H](CO)NC(=O)[C@H](CC(=O)O)NC(=O)[C@@H]3CSSC[C@H](NC(=O)[C@H](CO)NC(=O)[C@H](CC(C)C)NC(=O)CNC(=O)[C@H](CCC(=O)O)NC(=O)[C@H](CSSC[C@H](NC(=O)[C@@H](N)Cc4ccc(O)cc4)C(=O)N[C@@H](CCC(N)=O)C(=O)N[C@@H](CCCCN)C(=O)N[C@@H](Cc4c[nH]c5ccccc45)C(=O)N[C@@H](CCSC)C(=O)N[C@@H](Cc4c[nH]c5ccccc45)C(=O)N[C@@H]([C@@H](C)O)C(=O)N3)NC2=O)C(=O)N[C@@H](CCCCN)C(=O)N[C@@H](CC(C)C)C(=O)N[C@@H](Cc2c[nH]c3ccccc23)C(=O)N1)[C@@H](C)CC)C(N)=O` [compound 125], at hNav1.7 [1] (Nav1.4 over Nav1.7), the Nav1.4/Nav1.7 worked out at 17. On the same count and under the same terms, to `CC[C@H](C)[C@H](NC(=O)[C@H](CCC(=O)O)NC(=O)[C@H](CCCCN)NC(=O)[C@H](CCCNC(=N)N)NC(=O)[C@@H]1CSSC[C@@H]2NC(=O)[C@H](C)NC(=O)[C@H](CCCNC(=N)N)NC(=O)[C@H](CCCCN)NC(=O)[C@H](CO)NC(=O)[C@H](CC(=O)O)NC(=O)[C@@H]3CSSC[C@H](NC(=O)[C@H](CCC(=O)O)NC(=O)[C@H](CC(C)C)NC(=O)CNC(=O)[C@H](CCC(=O)O)NC(=O)[C@H](CSSC[C@H](NC(=O)[C@@H](N)Cc4ccc(O)cc4)C(=O)N[C@@H](CCC(N)=O)C(=O)N[C@@H](CCCCN)C(=O)N[C@@H](Cc4c[nH]c5ccccc45)C(=O)N[C@@H](CCSC)C(=O)N[C@@H](Cc4c[nH]c5ccccc45)C(=O)N[C@@H]([C@@H](C)O)C(=O)N3)NC2=O)C(=O)N[C@@H](CCCCN)C(=O)N[C@@H](CC(C)C)C(=O)N[C@@H](Cc2c[nH]c3ccccc23)C(=O)N1)C(N)=O` [compound 126] belongs 5 and 3; to `CC[C@H](C)[C@H](NC(=O)[C@H](Cc1ccc(C(=O)O)cc1)NC(=O)[C@H](CCCCN)NC(=O)[C@H](CCCNC(=N)N)NC(=O)[C@@H]1CSSC[C@@H]2NC(=O)[C@H](C)NC(=O)[C@H](CCCNC(=N)N)NC(=O)[C@H](CCCCN)NC(=O)[C@H](CO)NC(=O)[C@H](CC(=O)O)NC(=O)[C@@H]3CSSC[C@H](NC(=O)[C@H](CCC(=O)O)NC(=O)[C@H](CC(C)C)NC(=O)CNC(=O)[C@H](CCC(=O)O)NC(=O)[C@H](CSSC[C@H](NC(=O)[C@@H](N)Cc4ccc(O)cc4)C(=O)N[C@@H](CCC(N)=O)C(=O)N[C@@H](CCCCN)C(=O)N[C@@H](Cc4c[nH]c5ccccc45)C(=O)N[C@@H](CCSC)C(=O)N[C@@H](Cc4c[nH]c5ccccc45)C(=O)N[C@@H]([C@@H](C)O)C(=O)N3)NC2=O)C(=O)N[C@@H](CCCCN)C(=O)N[C@@H](CC(C)C)C(=O)N[C@@H](Cc2c[nH]c3ccccc23)C(=O)N1)C(N)=O` [compound 127], 2.

Consider `CC[C@H](C)[C@H](NC(=O)[C@H](CC(=O)O)NC(=O)[C@H](CCCCN)NC(=O)[C@H](CCCNC(=N)N)NC(=O)[C@@H]1CSSC[C@@H]2NC(=O)[C@H](C)NC(=O)[C@H](CCCNC(=N)N)NC(=O)[C@H](CCCCN)NC(=O)[C@H](CO)NC(=O)[C@H](CC(=O)O)NC(=O)[C@@H]3CSSC[C@H](NC(=O)[C@H](CCC(=O)O)NC(=O)[C@H](CC(C)C)NC(=O)CNC(=O)[C@H](CCC(=O)O)NC(=O)[C@H](CSSC[C@H](NC(=O)[C@@H](N)Cc4ccc(O)cc4)C(=O)N[C@@H](CCC(N)=O)C(=O)N[C@@H](CCCCN)C(=O)N[C@@H](Cc4c[nH]c5ccccc45)C(=O)N[C@@H](CCSC)C(=O)N[C@@H](Cc4c[nH]c5ccccc45)C(=O)N[C@@H]([C@@H](C)O)C(=O)N3)NC2=O)C(=O)N[C@@H](CCCCN)C(=O)N[C@@H](CC(C)C)C(=O)N[C@@H](Cc2c[nH]c3ccccc23)C(=O)N1)C(N)=O` [compound 128], for which, on hNav1.7 [1] (Nav1.4 over Nav1.7), the Nav1.4/Nav1.7 turned out to be 4. Same read-out and setting: the figure for `CC[C@H](C)[C@H](NC(=O)[C@H](CC(C)C)NC(=O)[C@H](CCCCN)NC(=O)[C@H](CCCNC(=N)N)NC(=O)[C@@H]1CSSC[C@@H]2NC(=O)[C@H](C)NC(=O)[C@H](CCCNC(=N)N)NC(=O)[C@H](CCCCN)NC(=O)[C@H](CO)NC(=O)[C@H](CC(=O)O)NC(=O)[C@@H]3CSSC[C@H](NC(=O)[C@H](CCC(=O)O)NC(=O)[C@H](CC(C)C)NC(=O)CNC(=O)[C@H](CCC(=O)O)NC(=O)[C@H](CSSC[C@H](NC(=O)[C@@H](N)Cc4ccc(O)cc4)C(=O)N[C@@H](CCC(N)=O)C(=O)N[C@@H](CCCCN)C(=O)N[C@@H](Cc4c[nH]c5ccccc45)C(=O)N[C@@H](CCSC)C(=O)N[C@@H](Cc4c[nH]c5ccccc45)C(=O)N[C@@H]([C@@H](C)O)C(=O)N3)NC2=O)C(=O)N[C@@H](CCCCN)C(=O)N[C@@H](CC(C)C)C(=O)N[C@@H](Cc2c[nH]c3ccccc23)C(=O)N1)C(N)=O` [compound 132] is 12. Take `CC[C@H](C)[C@H](NC(=O)[C@H](Cc1ccc(O)cc1)NC(=O)[C@H](CCCCN)NC(=O)[C@H](CCCNC(=N)N)NC(=O)[C@@H]1CSSC[C@@H]2NC(=O)[C@H](C)NC(=O)[C@H](CCCNC(=N)N)NC(=O)[C@H](CCCCN)NC(=O)[C@H](CO)NC(=O)[C@H](CC(=O)O)NC(=O)[C@@H]3CSSC[C@H](NC(=O)[C@H](CCC(=O)O)NC(=O)[C@H](CC(C)C)NC(=O)CNC(=O)[C@H](CCC(=O)O)NC(=O)[C@H](CSSC[C@H](NC(=O)[C@@H](N)Cc4ccc(O)cc4)C(=O)N[C@@H](CCC(N)=O)C(=O)N[C@@H](CCCCN)C(=O)N[C@@H](Cc4c[nH]c5ccccc45)C(=O)N[C@@H](CCSC)C(=O)N[C@@H](CC(N)=O)C(=O)N[C@@H]([C@@H](C)O)C(=O)N3)NC2=O)C(=O)N[C@@H](CCCCN)C(=O)N[C@@H](CC(C)C)C(=O)N[C@@H](Cc2c[nH]c3ccccc23)C(=O)N1)C(N)=O` [compound 215]: the Nav1.4/Nav1.7 at hNav1.7 [1] (Table 8) came to 1. The same measure, in the same setting: to `CC[C@H](C)[C@H](NC(=O)[C@H](Cc1ccc(O)cc1)NC(=O)[C@H](CCCCN)NC(=O)[C@H](CCCNC(=N)N)NC(=O)[C@@H]1CSSC[C@@H]2NC(=O)[C@H](C)NC(=O)[C@H](CCCNC(=N)N)NC(=O)[C@H](CCCCN)NC(=O)[C@H](CO)NC(=O)[C@H](CC(=O)O)NC(=O)[C@@H]3CSSC[C@H](NC(=O)[C@H](CCCNC(=N)N)NC(=O)[C@H](CC(C)C)NC(=O)CNC(=O)[C@H](CCC(=O)O)NC(=O)[C@H](CSSC[C@H](NC(=O)[C@@H](N)CCC(=O)O)C(=O)N[C@@H](CCC(N)=O)C(=O)N[C@@H](CCCCN)C(=O)N[C@@H](Cc4c[nH]c5ccccc45)C(=O)N[C@@H](CCSC)C(=O)N[C@@H](Cc4c[nH]c5ccccc45)C(=O)N[C@@H]([C@@H](C)O)C(=O)N3)NC2=O)C(=O)N[C@@H](CCCCN)C(=O)N[C@@H](CC(C)C)C(=O)N[C@@H](Cc2c[nH]c3ccccc23)C(=O)N1)C(N)=O` [compound 278] belongs 16.
